Here are results for three compounds from article PMC3259201 (European Journal of Medicinal Chemistry, 2011).

Entries after “also recorded” stand apart in the source; their conditions may differ.

The subject of the test is HIV-1 NL4-3 strain. The experiment in a line: HIV-1 infectivity assay, single cycle infection of TZM-bl cells. As to conditions: wild-type HIV-1 NL4-3 strain. It counts as cell-based.
Turning to `COc1cccc2c(=O)c3c(OC)cc4c(c3oc12)[C@@H](OC(=O)[C@@]12CCC(C)(C(=O)O1)C2(C)C)[C@@H](OC(=O)[C@@]12CCC(C)(C(=O)O1)C2(C)C)C(C)(C)O4` [Compound 14, 1R,2R-(-)-Dicamphanoyl-3,3-dimethyl-6,11-dimethoxy-1,2-dihydropyrano[2,3-c]xanthen-7(1H)-one], the “anti-HIV activity (in words)” value is listed as “no detectable anti-HIV activity or selectivity”. On to `CC1(C)Oc2cc(O)c3c(=O)c4ccccc4oc3c2[C@@H](OC(=O)[C@@]23CCC(C)(C(=O)O2)C3(C)C)[C@H]1OC(=O)[C@@]12CCC(C)(C(=O)O1)C2(C)C` [Compound 9, 1R,2R-(-)-Dicamphanoyl-3,3-dimethyl-6-hydroxy-1,2-dihydropyrano[2,3-c]xanthen-7(1H)-one], for which the “anti-HIV activity (in words)” value is reported as “did not show notable activity or selectivity; also recorded: did not exhibit anti-HIV activity”. The same measure for `COc1cc2c(c3oc4c(C)cccc4c(=O)c13)[C@@H](OC(=O)C13CCC(C)(C(=O)O1)C3(C)C)[C@@H](OC(=O)C13CCC(C)(C(=O)O1)C3(C)C)C(C)(C)O2` (stereo partly drawn) [Compound 10, 1R,2R-(-)-Dicamphanoyl-3,3,11-trimethyl-6-methoxy-1,2-dihydropyrano[2,3-c]xanthen-7(1H)-one]: “almost inactive”.
